These results are taken from patent publication US7473418B2, “Pan cancer oncolytic vectors and methods of use thereof” (Cell Genesys, Inc., priority 2004, dated 2009).

The test system of one data set is LNCaP cells. Put plainly: In vitro combination of CG5757 and chemotherapeutic agents. The data set is classed as cell-based, human. The procedure: (§1) Potential synergism between existing chemotherapeutic agents and the replication competent vectors of the present invention was investigated. Co-application of CG5757 with a variety of known chemotherapeutic agents was evaluated using an in vitro cell assay. A variety of known chemotherapeutic agents were tested in combination with CG5757 for their in vitro cytotoxic effect on Hep3B and LNCaP cells.

A further data set has as its system Hep3B cells. Described as above. It is filed as cell-based, human. The procedure:
as §1

Structures are written as SMILES.

For `CC(=O)O[C@H]1C(=O)[C@@]2(C)[C@H]([C@H](OC(=O)c3ccccc3)[C@]3(O)C[C@H](OC(=O)[C@H](O)[C@@H](NC(=O)c4ccccc4)c4ccccc4)C(C)=C1C3(C)C)[C@]1(OC(C)=O)CO[C@@H]1C[C@@H]2O` [Taxol], the “combination effect with CG5757” value with LNCaP cells was “potential synergistic cytotoxicity”.

With `COc1cccc2c1C(=O)c1c(O)c3c(c(O)c1C2=O)C[C@@](O)(C(=O)CO)C[C@@H]3O[C@H]1C[C@H](N)[C@H](O)[C@H](C)O1` [doxorubicin], the “combination effect with CG5757” value in the data set with Hep3B cells is reported as “potential synergistic cytotoxicity”. For the same compound, the cytotoxicity entry with Hep3B cells (5 ng/ml, agent alone) is “did not generate cytotoxicity”.
